{"source": "patent US20220251105A1", "about": "“METHODS OF TREATING A MK2-MEDIATED DISORDER” (Celgene CAR LLC, priority 2019, published 2022)", "key": {"[1]": {"experiment": "single oral dose pharmacokinetics in Sprague Dawley rats", "assay_type": "in vivo", "settings": "rat, male, single oral 30 mg/kg", "description": "In vitro and in vivo studies were conducted to characterize the absorption, PK, distribution, and metabolism of Compound 1. […] Additionally, plasma samples from single dose PK studies in mice and monkeys were evaluated for circulating metabolites."}, "Monkey/Cynomolgus": {"system": "Monkey/Cynomolgus", "experiment": "single dose (fasted/non-fasted) and 14-day repeat-dose study in cynomolgus monkeys", "assay_type": "in vivo", "description": "(§1) In cynomolgus monkeys, a 7-day repeat dose toxicity study was conducted with doses up to 250 mg/kg/day. […] To aid in dose selection for a subsequent pivotal study, an additional study was conducted to determine the maximum feasible dose under optimal feeding conditions in cynomolgus monkeys. […] Dosing monkeys in the fasted state prior to dosing yielded more consistently higher exposures. Therefore, a dose of 375 mg/kg in 0.5% methyl cellulose (400 cps) and 0.1% Tween 80 administered to fasted monkeys was selected for the 14-day repeat-dose phase of the study, and was considered the maximum feasible dose."}, "[2]": {"experiment": "toxicokinetics, single dose and 14-day monkey study", "assay_type": "in vivo", "settings": "cynomolgus monkey, plasma, po, monkeys", "description": "as §1"}, "[3]": {"experiment": "toxicokinetics, 28-day mouse study", "assay_type": "in vivo", "settings": "mice; for AUC / Cmax: Crl:CD1 (ICR), mouse, plasma, po", "from_the_text": "There were no notable sex-related differences in Compound 1 exposure.\nAdditionally, toxicokinetic animals received the vehicle or compound in the same manner and dose levels as the main study groups."}, "[4]": {"experiment": "Phase 1 first in human study, pharmacokinetics", "assay_type": "in vivo"}, "[5]": {"system": "proinflammatory cytokines (TNF-α) in LPS-stimulated whole blood", "experiment": "Phase 1 study, whole-blood ex vivo assay with LPS stimulation", "assay_type": "cell-based, human"}, "[6]": {"experiment": "91-day repeat-dose toxicology study with mice", "assay_type": "in vivo, mouse", "settings": "mouse, in vivo, 91-day"}, "mice": {"system": "mice", "experiment": "91-day repeat-dose toxicology study with mice", "assay_type": "in vivo, mouse", "settings": "750 mg/kg/day"}, "[7]": {"system": "Ankylosing spondylitis in HLA B27 Tg rat", "experiment": "HLA-B27/Huβ2m transgenic rat model of ankylosing spondylitis", "text": "Etanercept and tofactinib (Balagué et al. Profiling of dihydroorotate dehydrogenase, p38 and JAK inhibitors in the rat adjuvant-induced arthritis model: a translational study. Br J Pharmacol. 2012 June; 166(4):1320-32) were included in this rat study as comparator molecules."}, "[8]": {"settings": "female, 15 mg/kg/day, Study Day 1, female, 15 mg/kg/day"}, "[9]": {"settings": "female, 15 mg/kg/day, Study Day 21, female, 15 mg/kg/day"}, "[10]": {"settings": "female, 100 mg/kg/day, Study Day 1, female, 100 mg/kg/day"}, "[11]": {"settings": "female, 100 mg/kg/day, Study Day 21, female, 100 mg/kg/day"}, "[12]": {"settings": "female, 750 mg/kg/day, Study Day 1, female, 750 mg/kg/day"}, "[13]": {"settings": "female, 750 mg/kg/day, Study Day 21, female, 750 mg/kg/day"}, "[14]": {"settings": "male, 15 mg/kg/day, Study Day 1, male, 15 mg/kg/day"}, "[15]": {"settings": "male, 15 mg/kg/day, Study Day 21, male, 15 mg/kg/day"}, "[16]": {"settings": "male, 100 mg/kg/day, Study Day 1, male, 100 mg/kg/day"}, "[17]": {"settings": "male, 100 mg/kg/day, Study Day 21, male, 100 mg/kg/day"}, "[18]": {"settings": "male, 750 mg/kg/day, Study Day 1, male, 750 mg/kg/day"}, "[19]": {"settings": "male, 750 mg/kg/day, Study Day 21, male, 750 mg/kg/day"}}, "note": "Read-outs that look alike come from different tables or passages of the source.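 For AUCLST in this document: AUC to the last measurable time point (AUClast).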"}
{"molecule": "CCOCc1cnc(Cl)nc1Oc1ccc2c(ccc3sc4c(c32)NC[C@@H](C)NC4=O)n1", "note": "[Compound 1]", "values": [{"measurement": "F", "setting": "[1]", "value": 11, "unit": "%"}, {"measurement": "Findings, single dose phase", "setting": "Monkey/Cynomolgus; 375 and 500 mg/kg, fasted and non-fasted", "value": "No compound-related findings"}, {"measurement": "Findings, 14-day phase", "setting": "Monkey/Cynomolgus; fasted, 375 mg/kg/day", "value": "No compound-related findings"}, {"measurement": "AUC(0-t)", "setting": "[2]; 375 mg/kg, 375 mg/kg, fasted, read-out: Mean Day 1 AUC0-t", "value": 11500, "unit": "ng·h/mL"}, {"measurement": "AUC(0-t)", "setting": "[2]; 375 mg/kg, 375 mg/kg, non-fasted, read-out: Mean Day 1 AUC0-t", "value": 4060, "unit": "ng·h/mL"}, {"measurement": "AUC(0-t)", "setting": "[2]; 375 mg/kg/day, fasted, 375 mg/kg/day, read-out: Mean Day 14 AUC0-t", "value": 5510, "unit": "ng·h/mL"}, {"measurement": "AUC(0-t)", "setting": "[2]; 500 mg/kg, 500 mg/kg, fasted, read-out: Mean Day 1 AUC0-t", "value": 14300, "unit": "ng·h/mL"}, {"measurement": "AUC(0-t)", "setting": "[2]; 500 mg/kg, 500 mg/kg, non-fasted, read-out: Mean Day 1 AUC0-t", "value": 11400, "unit": "ng·h/mL"}, {"measurement": "AUC", "setting": "[3]; [8]", "value": 5360, "unit": "ng·h/mL"}, {"measurement": "Cmax", "setting": "[3]; [8]", "value": 2980, "unit": "ng/mL"}, {"measurement": "AUC", "setting": "[3]; [9]", "value": 5980, "unit": "ng·h/mL"}, {"measurement": "Cmax", "setting": "[3]; [9]", "value": 2970, "unit": "ng/mL"}, {"measurement": "AUC", "setting": "[3]; [10]", "value": 40100, "unit": "ng·h/mL"}, {"measurement": "Cmax", "setting": "[3]; [10]", "value": 14500, "unit": "ng/mL"}, {"measurement": "AUC", "setting": "[3]; [11]", "value": 32800, "unit": "ng·h/mL"}, {"measurement": "Cmax", "setting": "[3]; [11]", "value": 12300, "unit": "ng/mL"}, {"measurement": "AUC", "setting": "[3]; [12]", "value": 198000, "unit": "ng·h/mL"}, {"measurement": "Cmax", "setting": "[3]; [12]", "value": 50300, "unit": "ng/mL"}, {"measurement": "AUC", "setting": "[3]; [13]", "value": 135000, "unit": "ng·h/mL"}, {"measurement": "Cmax", "setting": "[3]; [13]", "value": 23200, "unit": "ng/mL"}, {"measurement": "AUC", "setting": "[3]; [14]", "value": 4410, "unit": "ng·h/mL"}, {"measurement": "Cmax", "setting": "[3]; [14]", "value": 2930, "unit": "ng/mL"}, {"measurement": "AUC", "setting": "[3]; [15]", "value": 4460, "unit": "ng·h/mL"}, {"measurement": "Cmax", "setting": "[3]; [15]", "value": 2420, "unit": "ng/mL"}, {"measurement": "AUC", "setting": "[3]; [16]", "value": 29200, "unit": "ng·h/mL"}, {"measurement": "Cmax", "setting": "[3]; [16]", "value": 13900, "unit": "ng/mL"}, {"measurement": "AUC", "setting": "[3]; [17]", "value": 24900, "unit": "ng·h/mL"}, {"measurement": "Cmax", "setting": "[3]; [17]", "value": 11700, "unit": "ng/mL"}, {"measurement": "AUC", "setting": "[3]; [18]", "value": 211000, "unit": "ng·h/mL"}, {"measurement": "Cmax", "setting": "[3]; [18]", "value": 29800, "unit": "ng/mL"}, {"measurement": "AUC", "setting": "[3]; [19]", "value": 92800, "unit": "ng·h/mL"}, {"measurement": "Cmax", "setting": "[3]; [19]", "value": 19400, "unit": "ng/mL"}, {"measurement": "dose proportionality of systemic exposure (AUCLST)", "setting": "[3]; Day 1, 15 to 750 mg/kg/day", "value": "approximately dose-proportional manner"}, {"measurement": "dose proportionality of systemic exposure (AUCLST)", "setting": "[3]; Day 21, 15 to 750 mg/kg/day", "value": "less than dose-proportional manner"}, {"measurement": "dose proportionality of Cmax and AUC", "setting": "[4]; Day 14, multiple daily doses 10 mg to 150 mg", "value": "approximately dose-proportional manner"}, {"measurement": "effect of food on PK", "setting": "[4]; current capsule formulation, fed vs fasted", "value": "limited effect"}, {"measurement": "accumulation", "setting": "[4]; daily dosing for 14 days", "value": "limited to no observed accumulation"}, {"measurement": "AUC", "setting": "[4]; human, in vivo, oral, humans, 150 mg, read-out: observed AUCLST", "value": 1360, "unit": "ng·h/mL"}, {"measurement": "half-life at 14 days", "setting": "[4]; human, plasma, oral, Day 14, multiple daily doses 10 mg to 150 mg, read-out: t½, geometric mean", "value": "1.96 to 4.39", "unit": "h"}, {"measurement": "Tmax at 14 days", "setting": "[4]; human, plasma, oral, multiple daily doses, 10 mg to 150 mg", "value": "1 to 2.5", "unit": "h"}, {"measurement": "Tmax", "setting": "[4]; human, plasma, single oral dose, 3 mg to 400 mg, read-out: median Tmax", "value": "1 to 3", "unit": "h"}, {"measurement": "half-life", "setting": "[4]; human, plasma, single oral dose, 3 mg to 400 mg, read-out: terminal elimination half-life (t½), geometric mean", "value": "1.66 to 6.95", "unit": "h"}, {"measurement": "predicted human bioavailability", "setting": "[4]; prediction before food effect part", "value": 25, "unit": "%"}, {"measurement": "dose proportionality of Cmax and AUC", "setting": "[4]; single oral dose, 3 mg to 400 mg", "value": "approximately dose proportional manner"}, {"measurement": "TNF inhibition in the ex vivo assay", "setting": "[5]; Part 1, single oral doses 10 mg to 400 mg, by 4 hours, LPS 24 hours", "value": "dose dependent increase"}, {"measurement": "TNF-α in the ex vivo assay", "setting": "[5]; Part 2, 14 days of dosing, doses greater than 10 mg, maximal inhibition at 150 mg", "value": "sustained reductions in TNF-α"}, {"measurement": "NOAEL at 91 days", "setting": "[6]", "value": 100, "unit": "mg/kg/day"}, {"measurement": "finding on which the NOAEL was based", "setting": "mice", "value": "microscopic findings in the heart"}, {"measurement": "Paw Swelling Inhibition (%)", "setting": "[7]; 100 mg/kg daily oral gavage", "value": 65, "unit": "%"}, {"measurement": "dose dependence of inhibition of paw swelling", "setting": "[7]; 20 and 100 mg/kg", "value": "dose-dependent inhibition of paw swelling"}, {"measurement": "cytokines IL-7, IL-1β; chemokines MCP-1, MIP-1α, KC; GM-CSF", "setting": "[7]; HLA-B27/Huβ2m rats", "value": "A trend towards decreases"}, {"measurement": "Minimally Efficacious Dose (lowest tested dose determined to be effective)", "setting": "[7]; endpoint paw score", "value": 20, "unit": "mg/kg"}]}
